Experiments:
Non-GCB DLBCL PDX models = assay: Compound 1 efficacy (TGI) in non-GCB DLBCL PDX models by CD79B / CD79B ITAM mutation; assay type: in vivo, mice; conditions: p.o. 7.5 mg/kg BID
Text: (§1) DLBCL patient-derived xenografted (PDX) models were established in immunodeficient NCG (NOD-Prkdcem26Cd52Il2rgem26Cd22/NjuCrl) mice. These models were classified into GCB and non-GCB subgroups based on immunohistochemistry (IHC) staining using Hans algorithm. Non-GCB DLBCL PDX models were classified into CD79B mutant versus CD79B wildtype groups; or CD79B ITAM domain mutant (amino acid 193-210) versus CD79B ITAM domain wildtype groups. For efficacy studies, tumor tissues were inoculated subcutaneously into NCG mice. When tumors reached 100˜200 mm^3, mice were randomized into each group with 7˜10 mice/group based on tumor volume. Compound 1 was formulated with 0.5% methyl cellulose as vehicle and treatment was started on the day of randomized grouping. Compound 1 was administrated p.o., 7.5 mg/(kg body weight), BID. Tumor volumes were measured twice weekly in two dimensions using a caliper, and the volume were expressed in mm^3 using the formula:
(§2) V=0.5(a×b^2) where a and b are the long and short diameters of the tumor, respectively.
(§3) Tumor growth inhibition (TGI) was calculated using the following formula:
(§4) % TGI=100×[1−(treatmentvt−treatmentv0)/(vehiclevt−Vehiclev0)]
(§5) Treatmentvt=tumor volume of treatment group at time t.
(§6) treatmentv0=tumor volume of treatment group at time of treatment started.
(§7) Vehiclevt=tumor volume of vehicle group at time t.
(§8) Vehiclev0=tumor volume of vehicle group at time of treatment started.
(§9) P value was calculated using two tails t test.

[1] = test system: DLBCL patient-derived xenografted (PDX) models; assay: Compound 1 efficacy (TGI) in DLBCL PDX models, GCB vs non-GCB; assay type: in vivo, mice; conditions: p.o. 7.5 mg/kg BID
Text: as §1, with “algorithm (Hans, C. P., et al., Blood, 2004. 103 (1): p. 275-282).” for “algorithm. Non-GCB DLBCL PDX models were classified into CD79B mutant versus CD79B wildtype groups; or CD79B ITAM domain mutant (amino acid 193-210) versus CD79B ITAM domain wildtype groups.”, “100-200” for “100˜200”, “7-10” for “7˜10”
as §2, §3, §4, §5, §6, §7, §8, §9

## C=CC(=O)N1CCC([C@@H]2CCNc3c(C(N)=O)c(-c4ccc(Oc5ccccc5)cc4)nn32)CC1 [Compound 1, (S)-7-(1-acryloylpiperidin-4-yl)-2-(4-phenoxyphenyl)-4,5,6,7-tetra-hydropyrazolo[1,5-a]pyrimidine-3-carboxamide]
Non-GCB DLBCL PDX models; CD79B ITAM domain mutation non-GCB DLBCL models
  TGI (mean±SD): 96.00±28.83%
Non-GCB DLBCL PDX models; CD79B mutation non-GCB DLBCL models
  TGI (mean±SD): 87.5±33.14%
Non-GCB DLBCL PDX models; CD79B wildtype non-GCB DLBCL models
  TGI (mean±SD): 49.44±42.36%
[1]; GCB subtype PDX models
  TGI (mean±SD): 25.5±11.96%
[1]; non-GCB DLBCL PDX models
  TGI (mean±SD): 63.60±42.92%

— patent US20230089557A1, “METHODS OF TREATING DLBCL USING BTK INHIBITORS AND COMBINATIONS THEREOF” (BEIGENE SWITZERLAND GMBH, priority 2020, published 2023)
